Assay results taken from publication PMC10197068 (Bioconjugate Chemistry, 2023).

Legend:
[1] = test system: G2T1 (DNA, G4) AGGGTTAGGGTTAGGGTTAGGGTTAGGGTTAGGGTTAGGGTTAGGG; assay: CD melting at 295 nm; details: 100 mM NaCl, 10 mM Li cacodylate, pH 7.3, 3 μM DNA
[2] = test system: G2T6 (DNA, G4) AGGGTTAGGGTTAGGGTTAGGGTTATTATTATTATTATTAGGGTTAGGGTTAGGGTTAGGG; assay: CD melting at 295 nm; details: 100 mM NaCl, 10 mM Li cacodylate, pH 7.3, 3 μM DNA
[3] = test system: G1 (Na+) monomeric HTelo G4 DNA, AGGG(TTAGGG)3; assay: CD melting with G1 (Na+); assay type: binding, human; details: CD melting at 295 nm, 25 to 95 °C at 2 °C/min; 100 mM NaCl, 10 mM Li cacodylate, pH 7.3; [G4 unit] 6 μM, [salphen unit] 12 μM
Protocol: (§1) Next, the DNA binding properties of the monomeric and dimeric compounds were studied. […] The following notation is used: […] The CD melting experiments were conducted solely with Na^+ stabilized DNA, which forms an antiparallel topology in solution (cf., in the presence of K^+ a mixture of topologies is observed). During the assay the temperature was increased from 25 to 95 °C upon which the intensity of signals with negative ellipticity at ca. 265 nm and positive ellipticity at ca. 295 (characteristic of an antiparallel G4 structure) decreased-see Figure 4a. This indicates the expected unfolding of the G4 DNA structure as the temperature increases. The changes in intensity were subsequently used to produce the corresponding melting curves (Figure 4b) for each sequence in the absence and presence of the different compounds under study. From these curves, the ΔTm values for the different sequences and compounds were determined, and the results are summarized in Figure 4c (see Supplementary Table 1 for values). […] G-Quadruplex oligonucleotides were purchased from Eurogentec (Belgium), and CT-DNA was purchased from Sigma-Aldrich. […] Prior to use, the DNA stock solutions were annealed by heating at 95 °C for 5 min and then cooling to room temperature overnight. Experiments were carried out on a Jasco J-810 spectrophotometer using a 1 cm quartz cuvette. Temperature was controlled using a Peltier module. The signal at 295 nm was monitored as temperature was increased for 25 to 95 °C at a rate of 2 °C/min. CD melting experiments were carried out with the appropriate G4 DNA (100 mM NaCl, 10 mM Li cacodylate, pH 7.3). Sample preparation was carried out by combining stock solutions of ligand and DNA in the appropriate buffer. […] Melting temperatures were obtained by curve fitting in Graphpad Prism 8. The data was normalized and fitted to a variable slope Hill equation, and the melting temperature was defined at the temperature at which y = 0.5.

[4] = test system: G2T1 (Na+) dimeric HTelo G4 DNA, AGGG(TTAGGG)7; assay: CD melting with G2T1 (Na+); assay type: binding, human; details: CD melting at 295 nm, 25 to 95 °C at 2 °C/min; 100 mM NaCl, 10 mM Li cacodylate, pH 7.3; [G4 unit] 6 μM (3 μM dimeric sequence), [salphen unit] 12 μM
Protocol: as §1

[5] = test system: G2T6 (Na+) dimeric HTelo G4 DNA, AGGG(TTAGGG)3(TTA)5(TTAGGG)4; assay: CD melting with G2T6 (Na+); assay type: binding, human; details: CD melting at 295 nm, 25 to 95 °C at 2 °C/min; 100 mM NaCl, 10 mM Li cacodylate, pH 7.3; [G4 unit] 6 μM (3 μM dimeric sequence), [salphen unit] 12 μM
Protocol: as §1

[6] = 6 μM compound (12 μM salphen units)

ΔTm [1, 6] | ΔTm ([1]; 12 μM compound) | ΔTm ([2]; 12 μM compound) | SMILES | other results
16.3 °C |  |  | C[N+](C)(C)CCOc1ccc(C=Nc2ccc(C(=O)NCc3cn(CC(=O)N[C@@H](CCCNC(=N)N)C(=O)N[C@@H](CCCCN)C(=O)N[C@@H](CCCCN)C(=O)N[C@@H](CCCNC(=N)N)C(=O)N[C@@H](Cn4cc(CNC(=O)c5ccc(N=Cc6ccc(OCC[N+](C)(C)C)cc6[O-])c(N=Cc6ccc(OCC[N+](C)(C)C)cc6[O-])c5)nn4)C(N)=O)nn3)cc2N=Cc2ccc(OCC[N+](C)(C)C)cc2[O-])c([O-])c1.[Pt+2].[Pt+2] | ΔTm [2, 6]: 13.8 °C
14.6 °C |  |  | C[N+](C)(C)CCOc1ccc(C=Nc2ccc(C(=O)NCc3cn(CC(=O)N[C@@H](CCCNC(=N)N)C(=O)N[C@@H](CCCNC(=N)N)C(=O)N[C@@H](Cn4cc(CNC(=O)c5ccc(N=Cc6ccc(OCC[N+](C)(C)C)cc6[O-])c(N=Cc6ccc(OCC[N+](C)(C)C)cc6[O-])c5)nn4)C(N)=O)nn3)cc2N=Cc2ccc(OCC[N+](C)(C)C)cc2[O-])c([O-])c1.[Pt+2].[Pt+2] | 
 | 16 °C | 17 °C | C[N+](C)(C)CCOc1ccc(C=Nc2ccccc2N=Cc2ccc(OCC[N+](C)(C)C)cc2[O-])c([O-])c1.[Ni+2] | 
 | 21 °C | 19 °C | C[N+](C)(C)CCOc1ccc(C=Nc2ccccc2N=Cc2ccc(OCC[N+](C)(C)C)cc2[O-])c([O-])c1.[Pt+2] | 
 |  |  | C[N+](C)(C)CCOc1ccc2c(c1)[O][Ni][O]c1cc(OCC[N+](C)(C)C)ccc1C=Nc1cc(C(=O)NCc3cn(CCOCCOCCn4cc(CNC(=O)c5ccc6c(c5)N=Cc5ccc(OCC[N+](C)(C)C)cc5[O][Ni][O]c5cc(OCC[N+](C)(C)C)ccc5C=N6)nn4)nn3)ccc1N=C2.F[P-](F)(F)(F)(F)F.F[P-](F)(F)(F)(F)F.F[P-](F)(F)(F)(F)F.F[P-](F)(F)(F)(F)F [Compound D2] | ΔTm G1 (Na+) [3]: 2.66 °C; ΔTm G2T1 (Na+) [4]: 13.80 °C; ΔTm G2T6 (Na+) [5]: 11.14 °C
